In this experiment the test system is keratinocyte transglutaminase (TGk). Briefly: Assaying of keratinocyte transglutaminase (TGk) activity in mitomycin-pretreated NHEKs in deficient medium (radiochemical assay). The experiment is classed as cell-based, human. Further details: key to Significant variation relative to the control: NS = not significant. The following applies: for % Activity relative to the control / Significant variation relative to the control: TGk activity, medium with mitomycin, depleted medium, 96 hours. The source says: For this, normal human epidermal keratinocytes (NHEKs), pretreated with mitomycin so as to prevent proliferation thereof, in a deficient medium made up of 40% of depleted SFM medium and 60% of Earle's balanced salt solution (EBSS) buffer were placed in culture. The metabolism of these cells having been thus slowed down, their ability to differentiate is then quantified by assaying, using a standard radiochemical assay, the keratinocyte transglutaminase activity (TGk) of the NHEKs pretreated with the active agents. […] Normal human keratinocytes were cultured at 37° C. and 5% CO2 for 24 h in complete SFM medium. The cell divisions were then blocked by treatment with mitomycin C (10 μg/ml) for 2 hours at 37° C. and 5% CO2. The cells were then incubated for 96 hours in deficient or nondeficient (control) medium containing or not containing various concentrations of the test or reference products. […] The treatments were carried out in triplicate (n=3). At the end of the incubation, the TGk membrane enzyme was extracted in the presence of Triton X-100 and the TGk activity was determined by measuring the covalent addition of tritiated putrescine, at a final concentration of 2 μCi/ml, to caseine (acceptor protein, 2 mg/ml final concentration). The caseine was precipitated by addition of trichloroacetic acid (TCA) and the precipitates were recovered on filters and a collector and then the dry filters were counted by liquid scintillation.

For the molecule `CC(O)C[C@@H]1OC[C@@H](O)[C@H](O)[C@H]1O` (stereo partly drawn) [C-β-D-xylopyranoside-2-hydroxypropane], for the setting “0.06%”, the “% Activity relative to the control” value was 128% and the “Significant variation relative to the control” value is recorded as “NS”. Further, for the setting “tested at 0.06%”, the “effect on the TGk activity” value is on record as “no significant effect”.

For `CC(O)CO` (stereo not drawn) [1,2-propanediol], for the setting “0.16%”, the “% Activity relative to the control” value was determined as 87% and the “Significant variation relative to the control” value is on record as “NS”. Also, the “effect on the TGk activity” value (tested at 0.8%) was “did not modify the activity”.

On to `[Ca+2].[Cl-].[Cl-]` [CaCl2, Calcium chloride, reference compound], for which, where the note is “1.5 mM”, the “effect on the TGk activity of the keratinocytes” value was “clearly increased the TGk activity”, the “% Activity relative to the control” value amounted to 557% and the “Significant variation relative to the control” value is on record as “+457%”.

On to Hyaluronic acid, for which, under “0.02%”, the “% Activity relative to the control” value is on record as 88% and the “Significant variation relative to the control” value was “NS”. Moreover, the “effect on the keratinocyte transglutaminase activity” value (tested alone at 0.02%) is listed as “no effect”.
